Source: the supplement of paper PMC8612539
Values after ≈ are worked out from the molar mass of the structure shown.

System: Escherichia coli
Assay: minimum inhibitory concentration (MIC)
Protocol: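 Broth microdilution MIC (Sensititre BOPO7F bovine plate, CLSI methods) of 19 antimicrobials against field isolates of P. multocida, M. haemolytica, H. somni (deep nasopharyngeal swabs) and E. coli, Enterococcus spp. (rectal swabs) from weaned dairy heifers. Incubation 16-24 h at 35 C. MIC is the lowest concentration preventing visible growth. Values with <= or > lie at the tested range limits. Trimethoprim-sulfamethoxazole is given as the trimethoprim component of a 1:19 mixture.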

CCCNC[C@]1(O)[C@H](C)O[C@@H](O[C@H]2[C@H](C)[C@@H](O[C@@H]3O[C@H](C)C[C@H](N(C)C)[C@H]3O)[C@](C)(O)C[C@@H](C)CN[C@H](C)[C@@H](O)[C@](C)(O)[C@@H](CC)OC(=O)[C@@H]2C)C[C@@]1(C)OC [Tulathromycin]
Settings | minimum inhibitory concentration [µg/mL]
isolate (source animal id): 8 | ≤ 8
isolate (source animal id): 9 | 16 (≈ 19.8 µM)
isolate (source animal id): 10 | 16 (≈ 19.8 µM)
isolate (source animal id): 11 | ≤ 8
isolate (source animal id): 12 | ≤ 8
isolate (source animal id): 13 | ≤ 8
isolate (source animal id): 14 | ≤ 8
isolate (source animal id): 15 | ≤ 8
isolate (source animal id): 16 | ≤ 8
isolate (source animal id): 98 | ≤ 8
isolate (source animal id): 99 | ≤ 8
isolate (source animal id): 100 | ≤ 8
isolate (source animal id): 101 | ≤ 8
isolate (source animal id): 102 | ≤ 8
isolate (source animal id): 103 | ≤ 8
isolate (source animal id): 104 | 16 (≈ 19.8 µM)
isolate (source animal id): 105 | ≤ 8
isolate (source animal id): 106 | 16 (≈ 19.8 µM)
isolate (source animal id): 107 | 16 (≈ 19.8 µM)
isolate (source animal id): 108 | 16 (≈ 19.8 µM)
isolate (source animal id): 109 | ≤ 8
isolate (source animal id): 110 | ≤ 8
isolate (source animal id): 111 | ≤ 8
isolate (source animal id): 112 | ≤ 8
isolate (source animal id): 113 | ≤ 8
isolate (source animal id): 114 | ≤ 8
isolate (source animal id): 115 | 64 (≈ 79.4 µM)
isolate (source animal id): 116 | ≤ 8
isolate (source animal id): 117 | 16 (≈ 19.8 µM)
isolate (source animal id): 118 | ≤ 8
isolate (source animal id): 119 | 32 (≈ 39.7 µM)
isolate (source animal id): 120 | ≤ 8
isolate (source animal id): 121 | ≤ 8
isolate (source animal id): 122 | ≤ 8
isolate (source animal id): 123 | ≤ 8
isolate (source animal id): 124 | 16 (≈ 19.8 µM)
isolate (source animal id): 125 | ≤ 8
isolate (source animal id): 126 | 16 (≈ 19.8 µM)
isolate (source animal id): 127 | 16 (≈ 19.8 µM)
isolate (source animal id): 128 | ≤ 8
isolate (source animal id): 129 | ≤ 8
isolate (source animal id): 130 | ≤ 8
isolate (source animal id): 131 | ≤ 8
isolate (source animal id): 132 | ≤ 8
isolate (source animal id): 133 | ≤ 8
isolate (source animal id): 134 | ≤ 8
isolate (source animal id): 135 | ≤ 8
isolate (source animal id): 136 | ≤ 8
isolate (source animal id): 137 | ≤ 8
isolate (source animal id): 138 | 32 (≈ 39.7 µM)
isolate (source animal id): 139 | ≤ 8
isolate (source animal id): 140 | ≤ 8
isolate (source animal id): 141 | ≤ 8
isolate (source animal id): 142 | ≤ 8
isolate (source animal id): 143 | 16 (≈ 19.8 µM)
isolate (source animal id): 144 | 16 (≈ 19.8 µM)
isolate (source animal id): 145 | 16 (≈ 19.8 µM)
isolate (source animal id): 146 | 16 (≈ 19.8 µM)
isolate (source animal id): 147 | ≤ 8
isolate (source animal id): 148 | ≤ 8
isolate (source animal id): 149 | ≤ 8
isolate (source animal id): 150 | ≤ 8
isolate (source animal id): 151 | ≤ 8
isolate (source animal id): 152 | ≤ 8
isolate (source animal id): 153 | ≤ 8
isolate (source animal id): 154 | ≤ 8
isolate (source animal id): 155 | ≤ 8
isolate (source animal id): 156 | ≤ 8
isolate (source animal id): 157 | ≤ 8
isolate (source animal id): 158 | ≤ 8
isolate (source animal id): 159 | ≤ 8
isolate (source animal id): 160 | ≤ 8
isolate (source animal id): 161 | ≤ 8
isolate (source animal id): 162 | ≤ 8
isolate (source animal id): 163 | 16 (≈ 19.8 µM)
isolate (source animal id): 164 | ≤ 8
isolate (source animal id): 165 | ≤ 8
isolate (source animal id): 166 | ≤ 8
isolate (source animal id): 167 | 16 (≈ 19.8 µM)
isolate (source animal id): 168 | ≤ 8
isolate (source animal id): 169 | ≤ 8
isolate (source animal id): 170 | ≤ 8
isolate (source animal id): 171 | ≤ 8
isolate (source animal id): 172 | ≤ 8
isolate (source animal id): 173 | ≤ 8
isolate (source animal id): 174 | ≤ 8
isolate (source animal id): 175 | 16 (≈ 19.8 µM)
isolate (source animal id): 176 | ≤ 8
isolate (source animal id): 177 | ≤ 8
isolate (source animal id): 178 | ≤ 8
isolate (source animal id): 179 | ≤ 8
isolate (source animal id): 180 | ≤ 8
isolate (source animal id): 181 | ≤ 8
isolate (source animal id): 182 | 16 (≈ 19.8 µM)
isolate (source animal id): 183 | ≤ 8
isolate (source animal id): 184 | ≤ 8
isolate (source animal id): 185 | 16 (≈ 19.8 µM)
isolate (source animal id): 186 | ≤ 8
isolate (source animal id): 187 | ≤ 8
isolate (source animal id): 188 | ≤ 8

CCC[C@@H]1C[C@@H](C(=O)N[C@@H]([C@H]2O[C@H](SC)[C@H](O)[C@@H](O)[C@H]2O)[C@H](C)Cl)N(C)C1 [Clindamycin]
Settings | minimum inhibitory concentration [µg/mL]
isolate (source animal id): 8 | > 16
isolate (source animal id): 9 | > 16
isolate (source animal id): 10 | > 16
isolate (source animal id): 11 | > 16
isolate (source animal id): 12 | > 16
isolate (source animal id): 13 | > 16
isolate (source animal id): 14 | > 16
isolate (source animal id): 15 | > 16
isolate (source animal id): 16 | > 16
isolate (source animal id): 98 | > 16
isolate (source animal id): 99 | > 16
isolate (source animal id): 100 | > 16
isolate (source animal id): 101 | > 16
isolate (source animal id): 102 | > 16
isolate (source animal id): 103 | > 16
isolate (source animal id): 104 | > 16
isolate (source animal id): 105 | > 16
isolate (source animal id): 106 | > 16
isolate (source animal id): 107 | > 16
isolate (source animal id): 108 | > 16
isolate (source animal id): 109 | > 16
isolate (source animal id): 110 | > 16
isolate (source animal id): 111 | > 16
isolate (source animal id): 112 | > 16
isolate (source animal id): 113 | > 16
isolate (source animal id): 114 | > 16
isolate (source animal id): 115 | > 16
isolate (source animal id): 116 | > 16
isolate (source animal id): 117 | > 16
isolate (source animal id): 118 | > 16
isolate (source animal id): 119 | > 16
isolate (source animal id): 120 | > 16
isolate (source animal id): 121 | > 16
isolate (source animal id): 122 | > 16
isolate (source animal id): 123 | > 16
isolate (source animal id): 124 | > 16
isolate (source animal id): 125 | > 16
isolate (source animal id): 126 | > 16
isolate (source animal id): 127 | > 16
isolate (source animal id): 128 | > 16
isolate (source animal id): 129 | > 16
isolate (source animal id): 130 | > 16
isolate (source animal id): 131 | > 16
isolate (source animal id): 132 | > 16
isolate (source animal id): 133 | > 16
isolate (source animal id): 134 | > 16
isolate (source animal id): 135 | > 16
isolate (source animal id): 136 | > 16
isolate (source animal id): 137 | > 16
isolate (source animal id): 138 | > 16
isolate (source animal id): 139 | > 16
isolate (source animal id): 140 | > 16
isolate (source animal id): 141 | > 16
isolate (source animal id): 142 | > 16
isolate (source animal id): 143 | > 16
isolate (source animal id): 144 | > 16
isolate (source animal id): 145 | > 16
isolate (source animal id): 146 | > 16
isolate (source animal id): 147 | > 16
isolate (source animal id): 148 | > 16
isolate (source animal id): 149 | > 16
isolate (source animal id): 150 | > 16
isolate (source animal id): 151 | > 16
isolate (source animal id): 152 | > 16
isolate (source animal id): 153 | > 16
isolate (source animal id): 154 | > 16
isolate (source animal id): 155 | > 16
isolate (source animal id): 156 | > 16
isolate (source animal id): 157 | > 16
isolate (source animal id): 158 | > 16
isolate (source animal id): 159 | > 16
isolate (source animal id): 160 | > 16
isolate (source animal id): 161 | > 16
isolate (source animal id): 162 | > 16
isolate (source animal id): 163 | > 16
isolate (source animal id): 164 | > 16
isolate (source animal id): 165 | > 16
isolate (source animal id): 166 | > 16
isolate (source animal id): 167 | > 16
isolate (source animal id): 168 | > 16
isolate (source animal id): 169 | > 16
isolate (source animal id): 170 | > 16
isolate (source animal id): 171 | > 16
isolate (source animal id): 172 | > 16
isolate (source animal id): 173 | > 16
isolate (source animal id): 174 | > 16
isolate (source animal id): 175 | > 16
isolate (source animal id): 176 | > 16
isolate (source animal id): 177 | > 16
isolate (source animal id): 178 | > 16
isolate (source animal id): 179 | > 16
isolate (source animal id): 180 | > 16
isolate (source animal id): 181 | > 16
isolate (source animal id): 182 | > 16
isolate (source animal id): 183 | > 16
isolate (source animal id): 184 | > 16
isolate (source animal id): 185 | > 16
isolate (source animal id): 186 | > 16
isolate (source animal id): 187 | > 16
isolate (source animal id): 188 | > 16
